Assay results reported in paper PMC6652007, “Metabolic engineering of Clostridium thermocellum for n-butanol production from cellulose” (Biotechnology for Biofuels, 2019).
Like-named read-outs stand apart in the source and are kept apart here.

Key:
[1] = target: T1, Tt_Hbd (Thermoanaerobacterium thermosaccharolyticum, UniProt P77851, D31A/I32R, form not given); assay: NAD(P)H oxidation, A340; format: biochemical; settings: acetoacetyl-CoA as substrate, 100 mM MOPS-KOH pH 7.5, 55 °C
T1 construct: gene hbd; His-tagged (vector pD861-CH), codon-optimised, expressed in E. coli BL21(DE3)
Text: NAD(P)H oxidation, A340 on Tt_Hbd

[2] = test system: T2, Ts_Bad; assay: NADH oxidation, A340; format: biochemical, Thermoanaerobacter sp. (strain X514); settings: 0.3 mM NADH, 100 mM MOPS-KOH pH 7.5, 55 °C, anaerobic
T2 construct: gene bad; His-tagged (vector pD861-CH), codon-optimised, expressed in E. coli BL21(DE3), purified anaerobically
Text: NADH oxidation, A340 on Ts_Bad

T1 sequence (P77851 whole entry D31A/I32R, form open): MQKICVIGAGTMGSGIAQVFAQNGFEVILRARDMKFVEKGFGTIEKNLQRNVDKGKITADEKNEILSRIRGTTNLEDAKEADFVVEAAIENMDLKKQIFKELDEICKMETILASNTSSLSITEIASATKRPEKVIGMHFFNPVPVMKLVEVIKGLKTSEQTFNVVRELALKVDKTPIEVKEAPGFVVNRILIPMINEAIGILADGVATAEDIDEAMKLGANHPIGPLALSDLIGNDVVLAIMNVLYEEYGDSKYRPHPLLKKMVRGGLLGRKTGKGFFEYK

Km [2] [µM] | SMILES | further results
 | NC(=O)C1=CN([C@@H]2O[C@H](COP(=O)(O)OP(=O)(O)OC[C@H]3O[C@@H](n4cnc5c(N)ncnc54)[C@H](O)[C@@H]3O)[C@@H](O)[C@H]2O)C=CC1 [NADH] | Km ([1]; read-out: NADH / Km): 110 ± 20 µM
200 ± 100 | CCCC(=O)SCCNC(=O)CCNC(=O)[C@H](O)C(C)(C)COP(=O)(O)OP(=O)(O)OC[C@H]1O[C@@H](n2cnc3c(N)ncnc32)[C@H](O)[C@@H]1OP(=O)(O)O [Butyryl-CoA] | 
90 ± 10 | CC(=O)SCCNC(=O)CCNC(=O)[C@H](O)C(C)(C)COP(=O)(O)OP(=O)(O)OC[C@H]1O[C@@H](n2cnc3c(N)ncnc32)[C@H](O)[C@@H]1OP(=O)(O)O [Acetyl-CoA] | 
 | NC(=O)C1=CN([C@@H]2O[C@H](COP(=O)(O)OP(=O)(O)OC[C@H]3O[C@@H](n4cnc5c(N)ncnc54)[C@H](OP(=O)(O)O)[C@@H]3O)[C@@H](O)[C@H]2O)C=CC1 [NADPH] | Km ([1]; read-out: NADPH / Km): 30 ± 10 µM
